The text below walks through data of US20230011869A1 (Hoffmann-La Roche Inc., priority 2018, published 2023).

Each structure is given as a SMILES string. Counter-ions that a name gives are not always drawn. Like-named read-outs stand apart in the source and are kept apart here.

The assay concerns Acinetobacter baumannii ATCC17978. Put plainly: Antimicrobial susceptibility testing: 90% growth inhibitory concentration (IC90) determination, Iso-Sensitest broth. Format: cell-based. The essentials:
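A. baumannii ATCC17978 grown in Iso-Sensitest broth across 10 compound concentrations at 35±2 °C.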

Where [1] appears, read: 90% growth inhibitory concentration, Acinetobacter baumannii ATCC17978, Iso-Sensitest broth, OD 600 nm over 16 h, read-out: ATCC17978 IC90.
Setting [2] is: Acinetobacter baumannii, ATCC17978, 16 h, read-out: ATCC17978 IC90, 90% growth inhibitory concentration, Acinetobacter baumannii ATCC17978, Iso-Sensitest broth, OD 600 nm over 16 h.

Regarding `Cc1cc(Nc2nccn3c(-c4ccc(OC(F)F)cc4)cnc23)ccc1C(=O)N1CCN(C(=O)C2CCCN2)CC1` (stereo not shown) [Example 177, [4-[[3-[4-(difluoromethoxy)phenyl]imidazo[1,2-a]pyrazin-8-yl]amino]-2-methyl-phenyl]-[4-(pyrrolidine-2-carbonyl)piperazin-1-yl]methanone hydrochloride], the IC90 under setting [1] was found to be 210 nM.

As to `CNCC1CN(C(=O)N2CCN(C(=O)c3ccc(Nc4nccn5c(-c6ccc(OC(F)F)cc6)cnc45)cc3C)CC2)CCO1` (stereo not shown) [Example 136, [4-[[3-[4-(difluoromethoxy)phenyl]imidazo[1,2-a]pyrazin-8-yl]amino]-2-methyl-phenyl]-[4-[2-(methylaminomethyl)morpholine-4-carbonyl]piperazin-1-yl]methanone hydrochloride], under setting [1], the IC90 is 270 nM. On the same count and under the same terms, then `Cc1cc(Nc2nccn3c(-c4ccc(OCC#N)c(F)c4F)cnc23)ccc1C(=O)N1CCC(CN)CC1` [Example 31, 2-[4-[8-[4-[4-(aminomethyl)piperidine-1-carbonyl]-3-methyl-anilino]imidazo[1,2-a]pyrazin-3-yl]-2,3-difluoro-phenoxy]acetonitrile;2,2,2-trifluoroacetic acid], with 120 nM; and `Cc1cc(Nc2nccn3c(-c4ccc(Oc5ccccn5)c(F)c4F)cnc23)ccc1C(=O)N1CCC(CN)CC1` [Example 122, [4-(aminomethyl)-1-piperidyl]-[4-[[3-[2,3-difluoro-4-(2-pyridyloxy)phenyl]imidazo[1,2-a]pyrazin-8-yl]amino]-2-methyl-phenyl]methanone formate], with 320 nM. In the case of `CCc1cc(Nc2nccn3c(-c4ccc(OCC#N)c(F)c4F)cnc23)ccc1C(=O)N1CCC(CCN)CC1` [Example 309, 2-[4-[8-[4-[4-(2-aminoethyl)piperidine-1-carbonyl]-3-ethylanilino]imidazo[1,2-a]pyrazin-3-yl]-2,3-difluorophenoxy]acetonitrile; formic acid], the IC90 under setting [2] came out at 130 nM. Same read-out and setting: in the case of `Cc1cc(Nc2nccn3c(-c4ccc(OC(F)F)cc4)cnc23)ccc1C(=O)N1CCN(C(=O)C2(O)CCNCC2)CC1` [Example 490, [4-[[3-[4-(difluoromethoxy)phenyl]imi-dazo[1,2-a]pyrazin-8-yl]amino]-2-methylphenyl]-[4-(4-hydroxypiperidine-4-carbonyl)piperazin-1-yl]methanone; hydrochloride] it was 280 nM. For `COc1ccc(-c2cnc3c(Nc4ccc(C(=O)N5CCN(C(=O)NC[C@H](C)N)CC5)c(C)c4)nccn23)c(F)c1F` [Example 149, N-[(2S)-2-aminopropyl]-4-[4-[[3-(2,3-difluoro-4-methoxy-phenyl)imidazo[1,2-a]pyrazin-8-yl]amino]-2-methyl-benzoyl]piperazine-1-carboxamide], the IC90 under setting [1] is 180 nM.

With `CNCC(=O)N1CCN(C(=O)c2ccc(Nc3nccn4c(-c5ccc(OC)c(F)c5Cl)cnc34)cc2C)CC1` [Example 307, 1-[4-[4-[[3-(2-chloro-3-fluoro-4-methoxyphenyl)imidazo[1,2-a]pyrazin-8-yl]amino]-2-methylbenzoyl]piperazin-1-yl]-2-(methylamino)ethanone; hy-drochloride], the IC90 under setting [1] turned out to be 97 nM. As for `Cc1cc(Nc2nccn3c(-c4ccc(OC(F)F)cc4)cnc23)ccc1C(=O)N1CCN(C(=O)C2C=CNCC2)CC1` (stereo not shown) [Example 501, [4-[[3-[4-(difluoromethoxy)phenyl]imi-dazo[1,2-a]pyrazin-8-yl]amino]-2-methylphenyl]-[4-(1,2,3,4-tetrahydropyridine-4-carbonyl)piperazin-1-yl]methanone; hydrochloride], under setting [2], the IC90 stood at 410 nM. Consider `COc1ccc(-c2cnc3c(Nc4ccc(C(=O)N5CCC(N(C)C)C5)c(C)c4)nccn23)cc1` (stereo not shown) [Example 384, [3-(dimethylamino)pyrrolidin-1-yl]-[4-[[3-(4-methoxyphenyl)imidazo[1,2-a]pyrazin-8-yl]amino]-2-methylphenyl]methanone], for which the IC90 under setting [1] turned out to be 5200 nM. In the case of `Cc1cc(Nc2nccn3c(-c4ccc(OC(F)F)cc4)cnc23)ccc1C(=O)N1CCN(C(=O)[C@@H]2CCNC[C@@H]2O)CC1` [Example 516, [4-[[3-[4-(difluoromethoxy)phenyl]imi-dazo[1,2-a]pyrazin-8-yl]amino]-2-methylphenyl]-[4-[(3R,4R)-3-hydroxypiperidine-4-carbonyl]piperazin-1-yl]methanone], the IC90 under setting [2] came out at 650 nM. Still for that read-out and setting: in the case of `Cc1cc(Nc2nccn3c(-c4ccc(OC(F)F)cc4)cnc23)ccc1C(=O)N1CCC(c2nccn2C)CC1` [Example 356, [4-[[3-[4-(difluoromethoxy)phenyl]imi-dazo[1,2-a]pyrazin-8-yl]amino]-2-methylphenyl]-[4-(1-methylimidazol-2-yl)piperidin-1-yl]methanone] it was 300 nM.

Turning to `Cc1cc(Nc2nccn3c(-c4ccc(OCC#N)c(F)c4F)cnc23)ccc1C(=O)N1CCC(C(=O)N2CCNC[C@@H]2CO)CC1` [Example 497, 2-[2,3-difluoro-4-[8-[4-[4-[(2R)-2-(hydroxymethyl)piperazine-1-carbonyl]piperidine-1-carbonyl]-3-methylanilino]imidazo[1,2-a]pyrazin-3-yl]phenoxy]acetonitrile; for-mic acid], the IC90 under setting [1] came out at 330 nM. Consider `COc1cc(F)c(-c2cnc3c(Nc4ccc(C(=O)N5CCC(CN)CC5)c(C)c4)nccn23)cc1F` [Example 106, (4-(aminomethyl)piperidin-1-yl)(4-((3-(2,5-difluoro-4-methoxyphenyl)imidazo[1,2-a]pyrazin-8-yl)amino)-2-methylphenyl)methanone], for which the IC90 under setting [1] was found to be 250 nM. Still for that read-out and setting: then `COc1ccc(-c2cnc3c(Nc4ccc(C(=O)N5CCC(C(=O)NCCNCCO)CC5)c(C)c4)nccn23)cc1F` [Example 396, 1-[4-[[3-(3-fluoro-4-methoxyphenyl)imidazo[1,2-a]pyrazin-8-yl]amino]-2-methylbenzoyl]-N-[2-(2-hydroxyethylamino)ethyl]pi-peridine-4-carboxamide; 2,2,2-trifluoroacetic acid], with 340 nM. With `Cc1cc(Nc2nccn3c(-c4ccc(OCC#N)c(F)c4F)cnc23)ccc1C(=O)N1CCC(C(=O)OC[C@@H]2CNCCN2)CC1` [Example 473, formic acid; [(2S)-piperazin-2-yl]methyl 1-[4-[[3-[4-(cyanomethoxy)-2,3-difluorophenyl]imidazo[1,2-a]pyrazin-8-yl]amino]-2-methylbenzoyl]piperidine-4-carboxylate], the IC90 under setting [2] was found to be 300 nM. On the same count and under the same terms, in the case of `Cc1cc(Nc2nccn3c(-c4ccc(OC(F)F)cc4)cnc23)ccc1C(=O)N1CCN(C(=O)C2CC3(CNC3)C2)CC1` [Example 312, [4-(2-azaspiro[3.3]heptane-6-carbonyl)piperazin-1-yl]-[4-[[3-[4-(difluoromethoxy)phenyl]imi-dazo[1,2-a]pyrazin-8-yl]amino]-2-methylphenyl]methanone; hy-drochloride] it was 220 nM.

Take `Cc1cc(Nc2nccn3c(-c4ccc(OC(F)F)cc4)cnc23)ccc1C(=O)N1CCC(n2cncn2)CC1` [Example 8, (4-(1H-1,2,4-triazol-1-yl)piperidin-1-yl)(4-((3-(4-(difluoromethoxy)phenyl)imidazo[1,2-a]pyrazin-8-yl)amino)-2-methylphenyl)methanone]: the IC90 under setting [1] is 130 nM. Still for that read-out and setting: in the case of `COc1ccc(-c2cnc3c(Nc4ccc(C(=O)N5CC[C@@H](N)[C@@H](O)C5)c(C)c4)nccn23)cc1F` [Example 423, [(3S,4R)-4-amino-3-hydroxypiperidin-1-yl]-[4-[[3-(3-fluoro-4-methoxyphenyl)imidazo[1,2-a]pyrazin-8-yl]amino]-2-methylphenyl]methanone; hy-drochloride] it was 1100 nM. With `Cc1cc(Nc2nccn3c(-c4ccc(OC(F)F)cc4)cnc23)ccc1C(=O)N1CCN(C(=O)CN2CCNCC2)CC1` [Example 347, 1-[4-[4-[[3-[4-(difluoromethoxy)phenyl]imi-dazo[1,2-a]pyrazin-8-yl]amino]-2-methylbenzoyl]piperazin-1-yl]-2-piperazin-1-ylethanone], the IC90 under setting [2] was 650 nM.

Take `Cc1cc(Nc2nccn3c(-c4ccc(OC(F)F)cc4)cnc23)ccc1C(=O)N1CCN(C(=O)CC(C)(C)N)CC1` [Example 329, 3-amino-1-[4-[4-[[3-[4-(difluoromethoxy)phenyl]imi-dazo[1.2-a]pyrazin-8-yl]amino]-2-methylbenzoyl]piperazin-1-yl]-3-methylbutan-1-one; hydrochloride]: the IC90 under setting [2] came to 400 nM. On to `COc1ccc(-c2cnc3c(Nc4ccc(C(=O)N5CCN[C@H](CO)C5)c(C)c4)nccn23)cc1F` [Example 419, [4-[[3-(3-fluoro-4-methoxyphenyl)imidazo[1,2-a]pyrazin-8-yl]amino]-2-methylphenyl]-[(3S)-3-(hydroxymethyl)piperazin-1-yl]methanone], for which the IC90 under setting [1] was 1000 nM. On to `COc1ccc(-c2cnc3c(Nc4ccc(C(=O)N5CCN(C(=O)C6CCNCC6)CC5)c(C)c4)nccn23)c(F)c1F` [Example 485, [4-[[3-(2,3-difluoro-4-methoxyphenyl)imidazo[1,2-a]pyrazin-8-yl]amino]-2-methylphenyl]-[4-(piperidine-4-carbonyl)piperazin-1-yl]methanone; hydrochloride], for which the IC90 under setting [1] stood at 190 nM.

Consider `Cc1cc(Nc2nccn3c(-c4ccc(OC(F)F)cc4)cnc23)ccc1C(=O)N1CCC(C(=O)NCC2(F)CNC2)CC1` [Example 310, 1-[4-[[3-[4-(difluoromethoxy)phenyl]imi-dazo[1,2-a]pyrazin-8-yl]amino]-2-methylbenzoyl]-N-[(3-fluoroazetidin-3-yl)methyl]piperidine-4-carboxamide; hydrochloride], for which, under setting [2], the IC90 worked out at 140 nM.

As to `COc1ccc(-c2cnc3c(Nc4ccc(C(=O)N5CCN(C(=O)C6(O)CCNCC6)CC5)c(C)c4)nccn23)c(Cl)c1F` [Example 215, [4-[[3-(2-chloro-3-fluoro-4-methoxy-phenyl)imidazo[1,2-a]pyrazin-8-yl]amino]-2-methyl-phenyl]-[4-(4-hydroxypiperidine-4-carbonyl)piperazin-1-yl]methanone formate], under setting [1], the IC90 was 150 nM.
